Data taken from PMC4490944 (Journal of immunology (Baltimore, Md. : 1950), 2015).

Key:
[1] = target: HLA-DR1 (DR1) (DRA*0101/DRB1*010101) (Homo sapiens, UniProt P01903+P01911, A100R/D57E/F55L/F60I/F76Y/I96L/L162R/M171V/P40L/Q125E/R42F/V115G/Y59C); test: Numerical modeling; type: binding; settings: Scheme V
[2] = test system: MHC II; settings: as previously reported; cited from earlier work

**Q.** Which “k-3 (values that could produce the same fits)” value ([1]; bound for same fit) does the source give for Ac-PRFVKQNTLRLAT [HA] here?
**A.** Its value is “less than 1×10^−4”.

**Q.** What about the “k-6 (values that could produce the same fits)” value ([1]; bound for same fit) of the same substance?
**A.** The value was “less than 1×10^−4”.

**Q.** What about the “k-7 (values that could produce the same fits)” value ([1]; bound for same fit) of the same substance?
**A.** Its value is “less than 1×10^−4”.

**Q.** What about the k5 ([1]; best fit value, DM-MHC resolves into inactive MHC II in the absence of peptides, kept the same for HA and CLIP, 0.4 μM DR1, 0.4 μM DM) of the same substance?
**A.** Its k5 is 0.36 min⁻¹.

**Q.** What about the “intrinsic and DM-catalyzed dissociation half-life” value [2] of the same substance?
**A.** The value was ~ 100 hours.
